Measured values from US20130216614A1, “IMMUNOGENIC COMPOSITIONS AND METHODS FOR TREATING NUEROLOGIC DISORDERS” (Glaxosmithkline Biologicals S.A., priority 2010, published 2013).

Tests used:
APPSwe/PS1 mice = assay: T-water maze; type: in vivo, mouse; conditions: for spatial memory / behaviour in T water maze compared to non-treated mice: twelve weekly injections, CRX 20 μg i.p., 3D MPL 50 μg i.p., AS01B 1/10th human dose i.m.; for T maze reversal test compared with group 1 (PBS): 12x weekly
Procedure: Five groups of APPSwe/PS1 mice have received one a week for a period of 12 weeks the following treatment: • Gr1: APPSwe/PS1+NaCl 0.9% n(=20), i.p. injections • Gr4: APPSwe/PS1+CRX527 (20 μg/mouse, 130 μl, n=10), i.p. injections • Gr5: APPSwe/PS1+CRX601 (20 μg/mouse, 130 μl, n=10), i.p. injections • Gr6: APPSwe/PS1+3D MPL (50 μg/mouse, 130 μl, n=10), i.p. injections • Gr8 APPSwe/PS1+AS15 • Gr9: APPSwe/PS1+AS01B ( 1/10th of human dose μg/kg, 50 μl, n=10), i.m. injections
Mice were tested during the “light on” phase of the day. Behavioral experimenter was blinded to the genetic and treatment status of animals. To assess hippocampal-dependent spatial learning and memory, mice were trained in the T-water maze task. In this paradigm, we evaluate the mouse's ability to remember the spatial location of submerged platform. The T-maze apparatus (length of stem, 64 cm; length of arms, 30 cm; width, 12 cm; height of walls, 16 cm) was made of clear fiberglass and filled with water (23±1° C.) at a height of 12 cm. A platform (11×11 cm) was placed at the end of the target arm and was submerged 1 cm below the surface. The acquisition phase allows to evaluate animals for left-right spatial learning. During the first two trials, platforms were placed on each arms of the maze to test the spontaneous turning preference of the mouse. After these two trials, the least chosen arm was reinforced by the escape platform. The mice were placed in the stem of the T-maze and choose to swim either left or right until they found the submerged platform and escape to it, to a maximum of 60 s. After reaching the platform, the mice remained on it for 20 s and then were immediately placed back in the maze. […] Repeated trials were presented on the same day up to a maximum of 48 trials. A rest period of at least 10-15 min intervened between each block of 10 trials. A mouse was considered to have learned the task when it made no errors in a block of five consecutive trials. The reversal learning phase was then conducted 48 h later.
During this phase, the same protocol was repeated, except that the mice were trained to find the escape platform on the opposite side to that on which they had learned on acquisition phase. The number of trials to reach the criterion (five of five correct choices made on consecutive trials) was measured as well as the latency to find the escape platform.
Further experiments were carried out using the following groups.

TLR2 mRNA = assay: In situ hybridization of TLR2 transcript in brain after peripheral injection; type: in vivo, C57BL/6J mice; conditions: 24 hr after single i.p. injection; CRX compounds 20 μg/mouse, 3D MPL 50 μg/mouse
Source text: In order to evaluate the innate activation within the brain, we have performed in situ hybridization 24 hr following the systemic injection of either 3D MPL, CRX524 or CRX527 or CRX601 using the intra peritoneal route.
Specifically GSK Bio injected different compositions in C57BL/6J mice for evaluating the potency of those adjuvants after 24 hrs of peripheral injection to trigger microglial cell activation in the brain. Animal study groups were:
GSK Bio performed the injections in C57BL6 mice at the Centre de biologie expérimentale de I'INRS-IAF under an IACUC approved protocol. Twenty four hours after the injections, mice were deeply anesthetized via an intraperitoneal injection of a mixture of ketamine hydrochloride and xylazine and then perfused intracardially with ice-cold 0.9% saline, followed by 4% paraformaldehyde (PFA) in a 0.1 M borax buffer, pH 9.5, at 4° C. Brains were rapidly removed from skulls, postfixed in PFA 1-3 d at 4° C. and sent to the CHUL. They were then cryoprotected in 10% sucrose diluted in PFA overnight. The frozen brains were sectioned into 25-μm-thick coronal sections using a microtome (Reichert-Jung, Cambridge Instruments Company), and slices were collected in a cold cryoprotectant solution (0.05 M sodium phosphate buffer, pH 7.3, 30% ethylene glycol, and 20% glycerol, stored at −20° C.).
Every 12th section of brain slices, starting from the end of the olfactory bulb to the end of the cerebral cortex, was mounted on Colorfrost/Plus microscope slides (Fisher Scientific). In situ hybridization histochemical localization of TLR2 transcript was performed using ^35S-labeled cRNA probe. […]
Dual labeling combining immunocytochemistry and in situ hybridization was performed as described previously (Laflamme and Rivest, 2001; Nadeau and Rivest, 2000 infra) to localize TLR2 transcripts in microglia (iba-1 staining). […] The images depicted by the different panels are representative of the signal detected on the slides for each group of mice.

CCCCCCCCCCC[C@H](CC(=O)N[C@H]1[C@H](OC[C@H](NC(=O)C[C@@H](CCCCCCCCCCC)OC(=O)CCCCCCCCC)C(=O)O)O[C@H](CO)[C@@H](OP(=O)(O)O)[C@@H]1OC(=O)C[C@@H](CCCCCCCCCCC)OC(=O)CCCCCCCCC)OC(=O)CCCCCCCCC [CRX527]
spatial memory / behaviour in T water maze compared to non-treated mice (APPSwe/PS1 mice): spatial memory improvement
spatial memory / behaviour in T water maze compared to non-treated mice (APPSwe/PS1 mice; listed as CRX 527): significant improvements
TLR2 mRNA activation in ventricular regions and choroid plexus (TLR2 mRNA): clearly activated

CCCCCCCCCCC[C@H](CC(=O)N[C@H]1[C@H](OC[C@H](NC(=O)C[C@@H](CCCCCCCCCCC)OCCCCCCCCCC)C(=O)O)O[C@H](CO)[C@@H](OP(=O)(O)O)[C@@H]1OC(=O)C[C@@H](CCCCCCCCCCC)OCCCCCCCCCC)OCCCCCCCCCC [CRX601]
T maze reversal test compared with group 1 (PBS) (APPSwe/PS1 mice; group 3: i.m. 2 ug per mouse): significantly improved
spatial memory / behaviour in T water maze compared to non-treated mice (APPSwe/PS1 mice): spatial memory improvement
spatial memory / behaviour in T water maze compared to non-treated mice (APPSwe/PS1 mice; listed as CRX 601): significant improvements
TLR2 mRNA activation in ventricular regions and choroid plexus (TLR2 mRNA): clearly activated

3-O-desacyl-4′-monophosphoryl lipid A [3D MPL]
T maze reversal test compared with group 1 (PBS) (APPSwe/PS1 mice; group 9: intra peritoneal 50 ug per mouse): significantly improved
T maze reversal test compared with group 1 (PBS) (APPSwe/PS1 mice; group 10: i.m. 5 ug per mouse): significantly improved
spatial memory / behaviour in T water maze compared to non-treated mice (APPSwe/PS1 mice): spatial memory improvement
spatial memory / behaviour in T water maze compared to non-treated mice (APPSwe/PS1 mice; listed as 3D-MPL): significant improvements
TLR2 mRNA activation in ventricular regions and choroid plexus (TLR2 mRNA): lesser extent
